Data published in patent US11534441B2, “MAP4K1 inhibitors” (Blueprint Medicines Corporation, priority 2020, dated 2022).

Key:
MAP4K1 (HPK1) = MAP4K1 (HPK1) (Homo sapiens (Human), UniProt Q92918); experiment: MAP4K1 (HPK1) biochemical enzymatic activity, electrophoretic mobility shift (EZReader 2), ATP at APPKM (26 μM)
Procedure, shortened: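 Enzyme at 0.1-15 nM was incubated with 1.5 μM fluorescent peptide and ATP at the apparent Km (26 μM) in HEPES pH 7.5, MgCl2, DTT and Brij 35. The reaction ran at 25° C for 60-180 min with a 10-point, 4-fold compound series (1% DMSO) and was stopped with EDTA. Substrate and product peptides were resolved by microfluidic mobility shift, and their peak ratio gave activity.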

expanded CD3+ T cells = experiment: T cell enhancement of cytokines: IL2 measurement (HTRF) in expanded CD3+ T cells stimulated with anti-CD3/anti-CD28; format: cell-based, human; conditions: IL-2 measurement
Procedure, shortened: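 Healthy-donor T cells (95-98% CD3+) expanded 10-14 days with IL2 and CD3/CD28 beads, then cryopreserved. 100K cells/well in X-VIVO 10 serum-free medium were stimulated with plate-bound anti-CD3 plus soluble anti-CD28 with compound at various concentrations for 24 h. Secreted IL2 measured by HTRF after 24 h antibody incubation.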

[1] = Homo sapiens, T-cell, class designation
[2] = Homo sapiens, T-cell, numeric value

Sequence of MAP4K1 (HPK1) (Q92918 whole entry): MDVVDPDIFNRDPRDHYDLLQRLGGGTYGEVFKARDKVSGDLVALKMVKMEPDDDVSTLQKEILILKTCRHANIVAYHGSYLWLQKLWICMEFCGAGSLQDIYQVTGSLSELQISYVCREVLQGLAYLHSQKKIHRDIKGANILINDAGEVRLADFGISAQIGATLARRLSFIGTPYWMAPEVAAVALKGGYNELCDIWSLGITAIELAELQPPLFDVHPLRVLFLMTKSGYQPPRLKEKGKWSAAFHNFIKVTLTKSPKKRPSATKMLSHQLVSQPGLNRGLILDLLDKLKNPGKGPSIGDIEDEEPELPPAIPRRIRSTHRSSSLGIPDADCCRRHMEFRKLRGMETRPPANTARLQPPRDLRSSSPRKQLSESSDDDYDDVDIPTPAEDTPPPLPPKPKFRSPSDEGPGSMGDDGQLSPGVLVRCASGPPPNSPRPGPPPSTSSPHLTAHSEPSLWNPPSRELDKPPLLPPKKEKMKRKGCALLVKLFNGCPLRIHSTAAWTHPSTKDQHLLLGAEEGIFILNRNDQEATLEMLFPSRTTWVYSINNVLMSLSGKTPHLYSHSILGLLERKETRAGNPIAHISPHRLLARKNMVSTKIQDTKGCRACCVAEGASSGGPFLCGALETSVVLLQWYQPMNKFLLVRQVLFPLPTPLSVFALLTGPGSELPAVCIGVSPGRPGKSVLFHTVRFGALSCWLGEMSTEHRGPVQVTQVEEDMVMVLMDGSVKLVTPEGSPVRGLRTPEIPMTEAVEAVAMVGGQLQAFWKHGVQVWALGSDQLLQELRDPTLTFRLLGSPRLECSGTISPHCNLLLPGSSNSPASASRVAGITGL

| Compound | IC50 (MAP4K1 (HPK1); class designation) [nM] | IC50 (MAP4K1 (HPK1); numeric value) [nM] | EC50 (expanded CD3+ T cells; class designation) [nM] | EC50 (expanded CD3+ T cells; numeric value) [nM] | EC50 (expanded CD3+ T cells; [1]) [nM] | EC50 (expanded CD3+ T cells; [2]) [nM] |
| --- | --- | --- | --- | --- | --- | --- |
| C[C@@H]1c2nc(Nc3cc4c([C@](C)(N)C5CC5)cnc(OC5(C)CC5)c4cn3)ccc2C(=O)OC1(C)C [Compound 91] | < 0.3 | 0.1 | < 35 | 15.1 |  |  |
| CC[C@](C)(N)c1cnc(OC2(C)CC2)c2cnc(Nc3ccc4c(n3)[C@@H](C)[C@@H](C)OC4=O)cc12 [Compound 92] | < 0.3 | 0.25 | < 35 | 15.4 |  |  |
| C[C@@H]1c2nc(Nc3cc4c([C@](C)(N)C5CC5)cnc(OC5(C)CC5)c4cn3)ccc2C(=O)O[C@@H]1C [Compound 94] | < 0.3 | 0.14 | < 35 | 23.5 |  |  |
| CC[C@@](C)(N)c1cnc(OC2CC2)c2cnc(Nc3ccc4c(n3)[C@@H](C)[C@@H](C)OC4=O)cc12 [Compound 96] | < 0.3 |  |  |  | < 35 | 9.4 |
| COc1ncc([C@](C)(N)C2CC2)c2cc(Nc3ccc4c(n3)[C@@H](C)C(C)(C)OC4=O)ncc12 [Compound 101] | < 0.3 | 0.11 | < 35 | 20.8 |  |  |
| COc1ncc([C@@](C)(N)C2CC2)c2cc(Nc3ccc4c(n3)[C@@H](C)C(C)(C)OC4=O)ncc12 [Compound 102] | 1.1 to 10 | 1.87 | < 35 | 28.7 |  |  |
| COc1ccc(C(C)(C)N)c2cc(Nc3ccc4c(n3)CC(C)(C)OC4=O)ncc12 [Compound 103] | < 0.3 | 0.11 |  |  | < 35 | 3.1 |
| CC(C)(N)c1cnc(OC2CC2)c2cnc(Nc3ccc4c(n3)C(C)(C)OC4=O)cc12 [Compound 105] | 1.1 to 10 | 2.09 |  |  | 45.1 to 55 | 50.6 |
| C[C@@H]1OC(=O)c2ccc(Nc3cc4c(C(C)(C)N)cnc(NC5CC5)c4cn3)nc2[C@H]1C [Compound 109] | < 0.3 | 0.21 |  |  | < 35 | 9.8 |
| CC[C@@](C)(N)c1cnc(OC2CC2)c2cnc(Nc3ccc4c(n3)C(C)(C)OC4=O)cc12 [Compound 110] | 0.31 to 1 | 0.55 | < 35 | 33.9 |  |  |
| CC[C@](C)(N)c1cnc(OC2CC2)c2cnc(Nc3ccc4c(n3)C(C)(C)OC4=O)cc12 [Compound 111] | > 10 | 16.8 | > 55 | 2660 |  |  |
| CC(C)(N)c1cnc(OC2CC2)c2cnc(Nc3ccc4c(n3)C(C)(C)COC4=O)cc12 [Compound 112] | < 0.3 | 0.23 |  |  | < 35 | 19.6 |
| CC[C@]1(C)OC(=O)c2ccc(Nc3cc4c(C(C)(C)N)cnc(OC5CC5)c4cn3)nc21 [Compound 113] | 0.31 to 1 | 0.58 | < 35 | 32.7 |  |  |
| CC[C@@]1(C)OC(=O)c2ccc(Nc3cc4c(C(C)(C)N)cnc(OC5CC5)c4cn3)nc21 [Compound 114] | 0.31 to 1 | 0.88 | < 35 | 25.6 |  |  |
| CC(C)(N)c1cnc(OCC(F)(F)F)c2cnc(Nc3ccnc(C(C)(C)F)n3)cc12 [Compound 115] | > 10 | 7.39 |  |  | > 55 | 232 |
| CC(C)(N)c1cnc(OCC(F)F)c2cnc(Nc3ccc4c(n3)C(C)(C)OC4=O)cc12 [Compound 116] | 1.1 to 10 | 2.14 |  |  | > 55 | 64.9 |
| C[C@@H]1c2nc(Nc3cc4c(C(C)(C)N)cnc(NC5CC5)c4cn3)ccc2C(=O)OC1(C)C [Compound 123] | < 0.3 | 0.2 |  |  | < 35 | 7.6 |
| C[C@@H]1OC(=O)c2ccc(Nc3cc4c(C(C)(C)N)cnc(NC5CCC5)c4cn3)nc2[C@H]1C [Compound 124] | < 0.3 | 0.24 |  |  | < 35 | 7.4 |

| Compound | IC50 (MAP4K1 (HPK1); class designation) [nM] | IC50 (MAP4K1 (HPK1); numeric value) [nM] | EC50 (expanded CD3+ T cells; class designation) [nM] | EC50 (expanded CD3+ T cells; numeric value) [nM] | EC50 (expanded CD3+ T cells; [1]) [nM] | EC50 (expanded CD3+ T cells; [2]) [nM] |
| --- | --- | --- | --- | --- | --- | --- |
| C[C@H]1OC(=O)c2ccc(Nc3cc4c(C(C)(C)N)cnc(OC5CC5)c4cn3)nc2C1(C)C [Compound 127] | < 0.3 | 0.17 | < 35 | 21 |  |  |
| CC[C@](C)(N)c1cnc(OC2CC2)c2cnc(Nc3ccc4c(n3)[C@@H](C)[C@H](C)OC4=O)cc12 [Compound 131] | 0.31 to 1 | 0.46 | 35.1 to 45 | 35.2 |  |  |
| CC[C@](C)(N)c1cnc(OC2CC2)c2cnc(Nc3ccc4c(n3)CC(C)(C)OC4=O)cc12 [Compound 133] | 1.1 to 10 | 5.86 | 45.1 to 55 | 53.8 |  |  |
| CC1(C)Cc2nc(Nc3cc4c(C(C)(C)N)cnc(OC5(C)CC5)c4cn3)ccc2C(=O)O1 [Compound 135] | 0.31 to 1 | 0.54 |  |  | < 35 | 31.6 |
| CC[C@@](C)(N)c1cnc(OC2CC2)c2cnc(Nc3ccc4c(n3)C(C)(C)COC4=O)cc12 [Compound 136] | 0.31 to 1 | 0.39 | 35.1 to 45 | 40.5 |  |  |
| CC[C@H]1c2nc(Nc3cc4c(C(C)(C)N)cnc(OC5CC5)c4cn3)ccc2C(=O)O[C@H]1C [Compound 138] | < 0.3 | 0.27 | < 35 | 13.8 |  |  |
| C[C@@H]1OC(=O)c2ccc(Nc3cc4c(C(C)(C)N)cnc(OC5COC5)c4cn3)nc2[C@H]1C [Compound 141] | 0.31 to 1 | 0.42 |  |  | < 35 | 21.6 |
| CC[C@@](C)(N)c1cnc(OC2CC2)c2cnc(Nc3ccc4c(n3)[C@@H](C)C(C)(C)OC4=O)cc12 [Compound 156] | < 0.3 | 0.1 | < 35 | 13.6 |  |  |
| CC[C@](C)(N)c1cnc(OC2CC2)c2cnc(Nc3ccc4c(n3)C(C)(C)[C@@H](C)OC4=O)cc12 [Compound 157] | < 0.3 | 0.14 | < 35 | 21.3 |  |  |
| C[C@@H]1OC(=O)c2ccc(Nc3cc4c(C(C)(C)N)cnc(O[C@H]5CCOC5)c4cn3)nc2[C@H]1C [Compound 159] | 0.31 to 1 | 0.39 |  |  | < 35 | 27.4 |
| C[C@@H]1OC(=O)c2ccc(Nc3cc4c(C(C)(C)N)cnc(OCC(C)(F)F)c4cn3)nc2[C@H]1C [Compound 166] | < 0.3 | 0.25 |  |  | 35.1 to 45 | 40 |
| CC1(C)Cc2nc(Nc3cc4c([C@](C)(N)C5CCC5)cnc(OC5CC5)c4cn3)ccc2C(=O)O1 [Compound 168] | < 0.3 | 0.15 | 35.1 to 45 | 41.3 |  |  |
| C[C@@H]1OC(=O)c2ccc(Nc3cc4c([C@](C)(N)C5CCC5)cnc(OC5CC5)c4cn3)nc2[C@H]1C [Compound 170] | < 0.3 | 0.07 | < 35 | 6.8 |  |  |
| CC[C@]1(C)OC(=O)c2ccc(Nc3cc4c(C(C)(C)N)cnc(OCC(F)(F)F)c4cn3)nc21 [Compound 172] | 1.1 to 10 | 4.47 | > 55 | 74.8 |  |  |
| CC[C@@]1(C)OC(=O)c2ccc(Nc3cc4c(C(C)(C)N)cnc(OCC(F)(F)F)c4cn3)nc21 [Compound 174] | 1.1 to 10 | 2.9 | < 35 | 28.2 |  |  |
| CC(C)(N)c1cnc(OCC(F)(F)F)c2cnc(Nc3ccnc([C@@H]4CCC[C@@H](O)C4)n3)cc12 [Compound 176] | 0.31 to 1 | 0.8 | < 35 | 20.9 |  |  |
| C[C@@H]1OC(=O)c2ccc(Nc3cc4c(C(C)(C)N)cnc(OC5CC(F)(F)C5)c4cn3)nc2[C@H]1C [Compound 178] | < 0.3 | 0.29 |  |  | > 55 | 58.7 |
